From the NIST ThermoML archive (doi:10.1021/je100949x)

Test: xn = mol fraction of the nth substance listed
Details: Maximal bubble pressure

CCCCn1cc[n+](C)c1.[Cl-] [1-butyl-3-methylimidazolium chloride] + O
Details | surface tension liquid-gas [mN/m]
298.1 K, x1 = 0.011 | 66.2
298.1 K, x1 = 0.015 | 65.5
298.1 K, x1 = 0.018 | 64.7
298.2 K, x1 = 0.004 | 69.9
298.2 K, x1 = 0.025 | 64.5
298.2 K, x1 = 0.031 | 63.7
298.3 K, x1 = 0.007 | 68.8
298.3 K, x1 = 0.053 | 61.7
298.3 K, x1 = 0.073 | 59.9
298.7 K, x1 = 0.142 | 56.7
298.9 K, x1 = 0.112 | 57.6
298.9 K, x1 = 0.226 | 55
299 K, x1 = 0.188 | 55.4
299.1 K, x1 = 0.004 | 68.9
299.2 K, x1 = 0.009 | 66.5
299.2 K, x1 = 0.016 | 65
299.2 K, x1 = 0.023 | 63.8
299.2 K, x1 = 0.303 | 55
299.3 K, x1 = 0.03 | 62.8
299.5 K, x1 = 0.033 | 63.3
299.5 K, x1 = 0.037 | 63
299.5 K, x1 = 0.374 | 54.9
299.6 K, x1 = 0.028 | 64.1
299.7 K, x1 = 0.002 | 70.5
299.7 K, x1 = 0.011 | 67.1
299.7 K, x1 = 0.017 | 65.6
299.9 K, x1 = 0.067 | 59.3
300 K, x1 = 0.048 | 61
300.1 K, x1 = 0.422 | 54.3
300.3 K, x1 = 0.077 | 59.6
300.3 K, x1 = 0.11 | 57
300.4 K, x1 = 0.089 | 57.9
300.4 K, x1 = 0.292 | 53.7
300.5 K, x1 = 0.139 | 55.8
300.5 K, x1 = 0.198 | 54.9
300.6 K, x1 = 0.134 | 55.9
300.6 K, x1 = 0.48 | 54.1
300.7 K, x1 = 0.163 | 55.4
300.9 K, x1 = 0.36 | 53.8
301.1 K, x1 = 0.225 | 54.4
301.2 K, x1 = 0.268 | 54.8
301.6 K, x1 = 0.329 | 54.6
302.1 K, x1 = 0.398 | 54.4

CCCCn1cc[n+](C)c1.F[B-](F)(F)F [1-butyl-3-methylimidazolium tetrafluoroborate] + O
Details | surface tension liquid-gas [mN/m]
298 K, x1 = 0.053 | 47.7
298 K, x1 = 0.114 | 48.1
298.1 K, x1 = 0.014 | 52.4
298.1 K, x1 = 0.046 | 47.8
298.2 K, x1 = 0.007 | 60.4
298.2 K, x1 = 0.021 | 49.2
298.3 K, x1 = 0.029 | 47.8
298.3 K, x1 = 0.033 | 47.9
298.3 K, x1 = 0.068 | 48.1
298.3 K, x1 = 0.186 | 48.1
298.4 K, x1 = 0.004 | 60.8
298.4 K, x1 = 0.019 | 48.9
298.4 K, x1 = 0.028 | 48
298.4 K, x1 = 0.114 | 48.1
298.4 K, x1 = 0.17 | 48.1
298.4 K, x1 = 0.228 | 47.9
298.5 K, x1 = 0.006 | 56.1
298.5 K, x1 = 0.009 | 53.2
298.5 K, x1 = 0.013 | 50.7
298.5 K, x1 = 0.109 | 48.4
298.5 K, x1 = 0.163 | 48.2
298.6 K, x1 = 0.026 | 48.5
298.6 K, x1 = 0.061 | 48.4
298.6 K, x1 = 0.233 | 47.9
298.6 K, x1 = 0.292 | 47.6
298.6 K, x1 = 0.355 | 47.5
298.7 K, x1 = 0.014 | 50.7
298.7 K, x1 = 0.05 | 48.3
298.7 K, x1 = 0.42 | 47.4
298.8 K, x1 = 0.01 | 53.2
298.8 K, x1 = 0.319 | 47.7
298.9 K, x1 = 0.392 | 47.5
298.9 K, x1 = 0.435 | 47.2
299 K, x1 = 0.004 | 60.3
299.2 K, x1 = 0.51 | 47.3

O [water] + CCCCn1cc[n+](C)c1.F[B-](F)(F)F
x2 = 0
Details | surface tension liquid-gas [mN/m]
298.1 K | 72
298.5 K | 71.9
298.9 K | 71.8

O [water] + CCCCn1cc[n+](C)c1.[Cl-]
x2 = 0
Details | surface tension liquid-gas [mN/m]
298.1 K | 71.9
298.9 K | 71.7
299.7 K | 71.6
